Reference: ChEMBL document CHEMBL1127794, “Structure-activity relationships of 1,3-dialkylxanthine derivatives at rat A3 adenosine receptors” (J Med Chem, 1994)

Assays:
[1] = molecular target: T1, Adenosine receptor A3 (Rattus norvegicus, UniProt P28647); assay: Displacement of [125I]AB-MECA from membranes of CHO cells stably transfected with the rat adenosine A3 receptor cDNA; format: cell membranes
T1 sequence (P28647 whole entry): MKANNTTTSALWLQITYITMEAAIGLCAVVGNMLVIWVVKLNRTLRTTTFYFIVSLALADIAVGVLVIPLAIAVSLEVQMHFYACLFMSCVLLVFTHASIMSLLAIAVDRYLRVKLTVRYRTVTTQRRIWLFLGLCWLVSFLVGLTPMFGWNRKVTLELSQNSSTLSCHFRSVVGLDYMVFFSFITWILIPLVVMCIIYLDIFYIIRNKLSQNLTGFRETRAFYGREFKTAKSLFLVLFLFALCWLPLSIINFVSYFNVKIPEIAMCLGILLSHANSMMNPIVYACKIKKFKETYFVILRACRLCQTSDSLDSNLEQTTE

[2] = molecular target: Adenosine receptor A2a (Rattus norvegicus, UniProt P30543)
Adenosine receptor A2a, sequence (P30543 whole entry): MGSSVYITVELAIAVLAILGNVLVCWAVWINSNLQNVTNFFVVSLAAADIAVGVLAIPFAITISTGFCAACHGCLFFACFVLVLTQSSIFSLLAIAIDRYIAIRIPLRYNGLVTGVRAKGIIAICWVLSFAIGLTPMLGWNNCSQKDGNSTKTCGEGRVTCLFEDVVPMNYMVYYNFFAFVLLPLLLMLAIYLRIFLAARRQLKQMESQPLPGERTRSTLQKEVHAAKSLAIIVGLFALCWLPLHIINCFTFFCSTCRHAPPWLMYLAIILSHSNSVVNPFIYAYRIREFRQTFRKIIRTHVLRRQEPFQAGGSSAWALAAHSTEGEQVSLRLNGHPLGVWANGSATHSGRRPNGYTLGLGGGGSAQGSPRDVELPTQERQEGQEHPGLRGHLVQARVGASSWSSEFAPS
Description: Displacement of [3H]-CGS- 21680 from adenosine A2a receptors of rat striatal membrane

[3] = molecular target: T2, Adenosine receptor A3 (Rattus norvegicus) (UniProt P28647); assay: Tested for the binding affinity, for displacement of [125I]AB-MECA in membranes of CHO cells stably transfected with the rat A3-cDNA at the 10e-4 concentration (M); format: cell membranes
T2 sequence (whole entry): T1 sequence (P28647 whole entry)

[4] = molecular target: T3, Adenosine receptor A1 (Rattus norvegicus) (UniProt P25099); assay: Tested for the binding affinity, for displacement of [3H]PIA in A1 receptors of rat brain membrane at 10e-4 concentration (M); format: cell membranes
T3 sequence (whole entry): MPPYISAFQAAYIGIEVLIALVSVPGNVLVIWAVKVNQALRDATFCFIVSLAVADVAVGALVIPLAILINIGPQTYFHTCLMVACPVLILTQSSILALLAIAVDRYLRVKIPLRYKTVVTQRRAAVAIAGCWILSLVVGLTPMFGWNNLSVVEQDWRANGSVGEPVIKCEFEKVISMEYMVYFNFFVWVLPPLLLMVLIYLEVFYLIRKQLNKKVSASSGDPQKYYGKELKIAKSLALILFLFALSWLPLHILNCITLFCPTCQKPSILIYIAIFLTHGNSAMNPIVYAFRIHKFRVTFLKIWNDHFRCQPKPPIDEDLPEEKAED

[5] = molecular target: Adenosine receptors; A1 & A3 (Rattus norvegicus) (UniProt P25099+P28647); assay: Ratio of selectivity for A3 and A1 receptors at rat brain
[6] = molecular target: Adenosine receptor A2a (Rattus norvegicus) (UniProt P30543); assay: Tested for the binding affinity, for displacement of [3H]-CGS- 21680 in A2a receptors of rat striatal membrane at 10e-4 concentration (M)
Adenosine receptor A2a (Rattus norvegicus), sequence (P30543 whole entry): as the sequence (P30543 whole entry) above

[7] = molecular target: T4, Adenosine receptor A1 (Rattus norvegicus, UniProt P25099)
T4 sequence (P25099 whole entry): T3 sequence (whole entry)
Description: Displacement of [3H]PIA from adenosine A1 receptors of rat brain membrane

[8] = molecular target: T2, Adenosine receptor A3 (Rattus norvegicus); assay: Tested for the binding affinity, for displacement of [125I]AB-MECA in membranes of CHO cells stably transfected with the rat A3-cDNA at the 10e-5 concentration (M); format: cell membranes
[9] = molecular target: T2, Adenosine receptor A3 (Rattus norvegicus); assay: Tested for the binding affinity, for displacement of [125I]AB-MECA in membranes of CHO cells stably transfected with the rat A3-cDNA at the 3*10e-5 concentration (M); format: cell membranes
[10] = molecular target: Adenosine receptor A2a (Rattus norvegicus) (UniProt P30543); assay: Tested for the binding affinity, for displacement of [3H]-CGS- 21680 in A2a receptors of rat striatal membrane at 10e-5 concentration (M)

Row | Ki [1] | Ki [2] | Ratio [5] | Ki [7] | SMILES | other results
1 | 6.77 µM | 0.226 µM |  |  | CCCn1c(=O)c2[nH]c(-c3ccc(OCC(=O)O)cc3)nc2n(CCC)c1=S | 
2 |  |  |  |  | Cn1c(=O)c2c(ncn2C)n(C)c1=O | inhibition [3]: 30.1%
3 |  |  | < 1 |  | Cn1c(=O)c2nc(CCCC(=O)O)[nH]c2n(C)c1=O | inhibition [4]: 0%; inhibition [6]: 26%
4 |  |  | 290 |  | CCCCn1c(=O)c2nc[nH]c2n(CCCC)c1=O | 
5 |  |  | 1300 |  | CCCn1c(=O)c2nc(-c3ccc(OCC(=O)O)cc3)[nH]c2n(CCC)c1=O | 
6 |  |  | 126 |  | CCCn1c(=O)c2nc(-c3ccc(OCC(=O)O)cc3)[nH]c2n(CCC)c1=S | 
7 |  |  | 640 |  | CCCn1c(=O)c2nc(-c3ccc(S(=O)(=O)O)cc3)[nH]c2n(CCC)c1=O | 
8 | 234 µM | 0.00722 µM | 36 | 6.51 µM | Cn1c(=O)c2c(nc(/C=C/c3cccc(NC(=O)CCCCC(=O)O)c3)n2C)n(C)c1=O | 
9 |  |  | 640 |  | CCCCn1c(=O)c2nc(-c3ccc(OCC(=O)O)cc3)[nH]c2n(CCCC)c1=O | 
10 | 98 µM | 0.157 µM |  | 0.036 µM | CCCn1c(=O)c2[nH]c(-c3ccc(OCC(=O)NCCNC(=O)CNCC(=O)O)cc3)nc2n(CCC)c1=O | 
11 |  | 0.8 µM |  |  | CCCn1c(=O)c2nc(-c3ccc(/C=C/C(=O)O)cc3)[nH]c2n(CCC)c1=O | 
12 | 45.1 µM | 0.637 µM | 230 |  | CCCn1c(=O)c2nc(-c3ccc(C(=O)O)cc3)[nH]c2n(CCC)c1=O | 
13 | 189 µM | 0.0129 µM | 9.2 | 20.5 µM | Cn1c(=O)c2c(nc(/C=C/c3cccc(NC(=O)CCC(=O)O)c3)n2C)n(C)c1=O | 
14 | 1.17 µM | 0.7 µM | 32 | 0.037 µM | CCCn1c(=O)c2nc(-c3ccc(OCC(=O)O)cc3)[nH]c2n(Cc2ccc(N)c(I)c2)c1=O | 
15 | 74.2 µM | 1.2 µM | 110 | 0.668 µM | CCCCn1c(=O)c2nc[nH]c2n(Cc2ccccc2)c1=O | 
16 |  | 46 µM | > 10 |  | Cn1c(=O)c2c(ncn2Cc2ccccc2)n(C)c1=O | inhibition [3]: 29.7%
17 | 73.7 µM | 16.5 µM | 22 | 3.37 µM | CCCCn1c(=O)c2nc(/C=C/C(=O)O)[nH]c2n(CCCC)c1=O | 
18 |  |  |  |  | Cn1c(=O)c2c(nc(/C=C/c3cccc(Cl)c3)n2C)n(C)c1=O | inhibition [8]: 4.2%
19 | 58.5 µM | 0.455 µM | 800 | 0.073 µM | CCCn1c(=O)c2nc(-c3ccc(OCC(=O)NCC(=O)O)cc3)[nH]c2n(CCC)c1=O | 
20 | 130 µM |  | < 1 |  | Cn1c(=O)c2c(nc(/C=C/C(=O)O)n2C)n(C)c1=O | 

Row | Ki [1] | Ki [2] | Ratio [5] | Ki [7] | SMILES | other results
21 | 133 µM | 113 µM | 9.4 |  | CCCCn1c(=O)c2nc(CCCC(=O)O)[nH]c2n(CCCC)c1=O | 
22 | 90.1 µM |  |  |  | CCCn1c(=O)c2[nH]c(-c3ccc(S(=O)(=O)O)cc3)nc2n(CCC)c1=O | 
23 |  | 20 µM |  | 5.27 µM | CCCCn1c(=O)c2[nH]c(CCCCC(=O)O)nc2n(CCCC)c1=O | 
24 | 289 µM | 0.0099 µM | 13 | 22.3 µM | Cn1c(=O)c2c(nc(/C=C/c3cccc(NC(=O)CCCC(=O)O)c3)n2C)n(C)c1=O | 
25 | 99.9 µM | 9.22 µM | 35 | 2.86 µM | CCCn1c(=O)c2nc(-c3ccc(OCC(=O)NCCNC(=O)CN(CC(=O)O)C(=O)CCC(=O)O)cc3)[nH]c2n(CCC)c1=O | 
26 |  |  |  |  | CCCCn1c(=O)c2nc(CCCCC(=O)O)[nH]c2n(CCCC)c1=O | inhibition [9]: 13%
27 |  |  | 2700 |  | CCCn1c(=O)c2nc(-c3ccc(OCC(=O)NCCNC(=O)CNCC(=O)O)cc3)[nH]c2n(CCC)c1=O | 
28 |  | 5.85 µM |  | 0.793 µM | CCCCn1c(=O)c2c(nc(/C=C/C(=O)OC)n2C)n(CCCC)c1=O | 
29 | 5.29 µM |  |  |  | CCCn1c(=O)c2[nH]c(C3CCCC3)nc2n(CCC)c1=O [1,3-DIPROPYL-8-CYCLOPENTYLXANTHINE [DPCPX]] | 
30 | 21.7 µM |  | 1100 |  | CCCn1c(=O)c2nc(-c3ccc(OCC(=O)NCCNC(=O)CN(CC(=O)O)C(=O)OCC4c5ccccc5-c5ccccc54)cc3)[nH]c2n(CCC)c1=O | 
31 | 9.36 µM | 67.8 µM | 1.6 | 5.7 µM | Cn1c(=O)c2nc(CCCC(=O)O)[nH]c2n(C)c1=S | 
32 |  |  | > 10 |  | O=c1c2[nH]cnc2n(Cc2ccccc2)c(=O)n1Cc1ccccc1 | inhibition [10]: 3.6%; inhibition [8]: 20.3%
33 | 40.6 µM | 0.252 µM | 520 | 0.078 µM | CCCn1c(=O)c2nc(-c3ccc(OCC(=O)NCCNC(=O)CCC(=O)O)cc3)[nH]c2n(CCC)c1=O | 
34 | 29 µM |  |  |  | CCCn1c(=O)c2[nH]c(-c3ccc(OCC(=O)NCCN)cc3)nc2n(CCC)c1=O [XANTHINE AMINE CONGENER] | 
35 | 93.4 µM |  |  |  | Cn1c(=O)c2[nH]c(CCCC(=O)O)nc2n(C)c1=O | 
36 |  |  | > 10 |  | CCCCCCn1c(=O)c2nc[nH]c2n(CCCCCC)c1=O | inhibition [10]: 14.3%; inhibition [8]: 9.2%
37 | 127 µM | 23.2 µM | 21 | 5.91 µM | CCCCn1c(=O)c2c(nc(/C=C/C(=O)O)n2C)n(CCCC)c1=O | 
38 |  |  | 230 |  | C=CCn1c(=O)c2nc(-c3ccc(OCC(=O)O)cc3)[nH]c2n(CC=C)c1=O | 
39 | 129 µM | 71.7 µM | 18 | 7.11 µM | CCCCn1c(=O)c2nc(CCC(=O)O)[nH]c2n(CCCC)c1=O | 
40 |  | 29.3 µM |  | 0.5 µM | CCCCn1c(=O)c2[nH]cnc2n(CCCC)c1=O | 
